Like-named read-outs stand apart in the source and are kept apart here.
Legend:
[1] = molecular target: T1, muscarinic M3 receptor (Homo sapiens, UniProt P20309); test: R-SAT functional screen, M3; format: cell-based
T1 construct: expressed in transfected cells
From the text: The term “modulate” refers to the ability of a compound disclosed herein to alter the function of a muscarinic receptor. A modulator may activate the activity of a muscarinic receptor, may activate or inhibit the activity of a muscarinic receptor depending on the concentration of the compound exposed to the muscarinic receptor, or may inhibit the activity of a muscarinic receptor. The term “modulate” also refers to altering the function of a muscarinic receptor by increasing or decreasing the probability that a complex forms between a muscarinic receptor and a natural binding partner. A modulator may increase the probability that such a complex forms between the muscarinic receptor and the natural binding partner, may increase or decrease the probability that a complex forms between the muscarinic receptor and the natural binding partner depending on the concentration of the compound exposed to the muscarinic receptor, and or may decrease the probability that a complex forms between the muscarinic receptor and the natural binding partner. In some embodiments, modulation of the muscarinic receptor may be assessed using Receptor Selection and Amplification Technology (R-SAT) as described in U.S. Pat. No. 5,707,798, the disclosure of which is incorporated herein by reference in its entirety.
(§1) Several compounds disclosed herein were evaluated for activity at muscarinic receptors using Receptor Selection and Amplification Technology (R-SAT) as described in U.S. Pat. No. 5,707,798, the disclosure of which is incorporated herein by reference in its entirety. The efficacy (eff) and potency (expressed as pEC50) of these compounds are presented in Table 1 at M1, M2, and M3 receptors.

[2] = molecular target: T2, muscarinic M2 receptor (Homo sapiens, UniProt P08172); test: R-SAT functional screen, M2; format: cell-based; details: for Emax: read-out: M2 eff (efficacy); for EC50: read-out: M2 pEC50 (converted)
T2 construct: expressed in transfected cells
T2 sequence (P08172 1-466): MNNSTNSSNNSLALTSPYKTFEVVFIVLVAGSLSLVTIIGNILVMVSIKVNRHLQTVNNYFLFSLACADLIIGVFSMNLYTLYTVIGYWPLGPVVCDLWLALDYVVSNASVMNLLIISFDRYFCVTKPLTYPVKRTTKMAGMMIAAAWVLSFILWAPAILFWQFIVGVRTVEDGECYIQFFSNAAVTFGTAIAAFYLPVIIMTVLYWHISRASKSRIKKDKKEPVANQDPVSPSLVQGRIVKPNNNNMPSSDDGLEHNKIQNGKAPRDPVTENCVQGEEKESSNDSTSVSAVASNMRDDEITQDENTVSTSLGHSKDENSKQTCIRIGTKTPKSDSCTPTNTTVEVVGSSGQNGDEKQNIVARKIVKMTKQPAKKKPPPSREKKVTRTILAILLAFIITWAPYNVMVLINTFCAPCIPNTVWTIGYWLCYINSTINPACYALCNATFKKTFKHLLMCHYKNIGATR
Procedure: as §1

[3] = molecular target: T3, muscarinic M1 receptor (Homo sapiens, UniProt P11229); test: R-SAT functional screen, M1; format: cell-based; details: for Emax: read-out: M1 eff (efficacy); for EC50: read-out: M1 pEC50 (converted)
T3 construct: expressed in transfected cells
T3 sequence (P11229 1-460): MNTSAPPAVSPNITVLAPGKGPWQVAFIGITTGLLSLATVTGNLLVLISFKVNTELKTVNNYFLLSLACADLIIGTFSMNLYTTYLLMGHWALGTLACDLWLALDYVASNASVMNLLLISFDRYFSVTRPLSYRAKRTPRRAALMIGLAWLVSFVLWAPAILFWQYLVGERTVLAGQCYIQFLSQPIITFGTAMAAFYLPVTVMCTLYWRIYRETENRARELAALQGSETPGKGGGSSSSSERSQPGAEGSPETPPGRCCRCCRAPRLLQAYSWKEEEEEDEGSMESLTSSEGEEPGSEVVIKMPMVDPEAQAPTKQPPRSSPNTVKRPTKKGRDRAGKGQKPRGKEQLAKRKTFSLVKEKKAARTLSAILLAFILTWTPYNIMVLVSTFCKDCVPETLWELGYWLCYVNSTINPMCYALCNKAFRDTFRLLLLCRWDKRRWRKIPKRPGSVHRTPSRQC
Procedure: as §1

[4] = tested on: novel object recognition; test: Novel object recognition (NOR) assay; format: in vivo; details: mice, dose approx. ID75 in MK-801 hyperactivity assay
Procedure: Salts of the compounds were administered to mice at one hour post-training (a time-point at which animals normally behaviorally discriminate between novel and familiar objects) and two hours post-training (a time-point at which these animals normally no longer discriminate between objects). Doses were selected to correspond to the approximate ID75 value in the MK-801 hyperactivity assay.

[5] = tested on: hyperactivity induced by MK-801; test: MK-801 induced hyperactivity mouse model; format: in vivo; details: mice, salts of the compounds
Procedure: (§2) Five of the compounds listed in Table 2 were tested in an in vivo assay predictive of antipsychotic activity. Salts of these compounds where administered to mice having hyperactivity induced by amphetamine or MK-801 administration. The compounds were administered both subcutaneously (sc) and orally (po).

[6] = tested on: hyperactivity induced by amphetamine; test: Amphetamine induced hyperactivity mouse model; format: in vivo; details: mice, salts of the compounds
Procedure: as §2

T1 sequence (P20309 whole entry): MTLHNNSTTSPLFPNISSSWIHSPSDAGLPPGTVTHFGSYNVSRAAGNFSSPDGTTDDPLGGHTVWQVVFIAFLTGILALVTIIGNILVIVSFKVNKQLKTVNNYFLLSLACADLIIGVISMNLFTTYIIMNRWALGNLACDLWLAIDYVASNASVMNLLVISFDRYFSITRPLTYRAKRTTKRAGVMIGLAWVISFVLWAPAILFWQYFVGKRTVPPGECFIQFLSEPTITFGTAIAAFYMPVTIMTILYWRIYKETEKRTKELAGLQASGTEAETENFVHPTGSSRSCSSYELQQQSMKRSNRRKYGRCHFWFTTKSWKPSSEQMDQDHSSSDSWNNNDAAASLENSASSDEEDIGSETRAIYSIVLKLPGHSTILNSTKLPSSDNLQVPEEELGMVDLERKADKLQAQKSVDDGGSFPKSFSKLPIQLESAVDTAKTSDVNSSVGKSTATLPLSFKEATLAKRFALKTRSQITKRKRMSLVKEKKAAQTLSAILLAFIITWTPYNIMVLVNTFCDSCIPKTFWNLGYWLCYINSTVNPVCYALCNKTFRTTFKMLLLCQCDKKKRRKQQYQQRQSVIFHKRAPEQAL

SMILES | Emax ([2]; R-SAT) | EC50 ([2]; R-SAT) | Emax ([3]; R-SAT) | EC50 ([3]; R-SAT) | other results
Cc1cccc2c1Nc1ccc(Cl)cc1N=C2N1CCNCC1 [8-Chloro-4-methyl-11-(piperazin-1-yl)-5H-dibenzo[b,e][1,4]diazepine] | 162% | 1000 nM | 92% | 63.1 nM | M3 eff (efficacy) [1]: 16
Brc1ccc2c(c1)N=C(N1CCNCC1)c1ccccc1N2 [8-Bromo-11-(piperazin-1-yl)-5H-dibenzo[b,e][1,4]diazepine] | 121% | 501 nM | 63% | 63.1 nM | M3 eff (efficacy) [1]: 13
Clc1ccc2c(c1)N=C(N1CCNCC1)c1cccc(Cl)c1N2 [4,8-Dichloro-11-(piperazin-1-yl)-5H-dibenzo[b,e][1,4]diazepine] | 118% | 1000 nM | 78% | 63.1 nM | M3 eff (efficacy) [1]: 44; EC50 ([1]; read-out: M3 pEC50 (converted)): 158 nM
CN1CCN(C2=Nc3cc(Cl)ccc3Nc3ccccc32)CC1 [Clozapine, clozapine, reference compound] | – | – | – | – | NOR - 60 minutes post training [4]: not retained; NOR - 120 minutes post training [4]: not retained; NOR - 60 minutes post training ([4]; listed as clozapine): abolished novel object recognition; NOR - 120 minutes post training ([4]; listed as clozapine): cognitive impairing effects; MK-801 model (ID50 mg/kg po) ([5]; po): 0.6 mg/kg; MK-801 model (ID50 mg/kg sc) ([5]; sc): 0.5 mg/kg; Amphetamine model (ID50 mg/kg po) ([6]; po): 10 mg/kg; Amphetamine model (ID50 mg/kg sc) ([6]; sc): 1.4 mg/kg
Cc1ccc2c(c1)N=C(N1CCNCC1)c1ccccc1N2 [8-Methyl-11-(piperazin-1-yl)-5H-dibenzo[b,e][1,4]diazepine] | 98% | 1000 nM | 49% | 158 nM | –
Clc1ccc2c(c1)C(N1CCNCC1)=Nc1cc(Br)ccc1N2 [8-Bromo-2-chloro-11-(piperazin-1-yl)-5H-dibenzo[b,e][1,4]diazepine] | 29% | 3160 nM | 10% | – | –
Clc1ccc2c(c1)Nc1cc(Cl)ccc1C(N1CCNCC1)=N2 [3,7-Dichloro-11-(piperazin-1-yl)-5H-dibenzo[b,e][1,4]diazepine] | 19% | – | 15% | – | –
N#Cc1ccc2c(c1)N=C(N1CCNCC1)c1ccccc1N2 [11-(piperazin-1-yl)-5H-dibenzo[b,e][1,4]diazepine-8-carbonitrile] | 106% | 1000 nM | 49% | 251 nM | –
Brc1ccc2c(c1)N=C(N1CCNCC1)CC(c1ccccc1)N2 (stereo not shown) [7-Bromo-2-phenyl-4-(piperazine-1-yl)-2,3-dihydro-1H-benzo[b][1,4]diazepine] | 19% | – | 3% | – | –
Cc1ccc2c(c1)C(N1CCNCC1)=Nc1ccc(Cl)cc1N2 [7-Chloro-2-methyl-11-(piperazin-1-yl)-5H-dibenzo[b,e][1,4]diazepine] | 5% | – | -3% | – | –
Clc1ccc2c(c1)N=C(N1CCNCC1)c1ccc(Cl)cc1N2 [3,8-Dichloro-11-(piperazin-1-yl)-5H-dibenzo[b,e][1,4]diazepine] | 58% | 1580 nM | 34% | 126 nM | –
FC(F)(F)c1ccc2c(c1)N=C(N1CCNCC1)c1cc(Cl)ccc1N2 [2-Chloro-11-(piperazin-1-yl)-8-trifluoromethyl-5H-dibenzo[b,e][1,4]diazepine] | 19% | – | 10% | – | –
c1ccc2c(c1)N=C(N1CCNCC1)c1ccccc1N2 [11-(piperazin-1-yl)-5H-dibenzo[b,e][1,4]diazepine] | 70% | 2510 nM | 38% | 794 nM | –
Clc1ccc2c(c1)N=C(N1CCNCC1)c1cc(Cl)ccc1N2 [2,8-Dichloro-11-(piperazin-1-yl)-5H-dibenzo[b,e][1,4]diazepine] | 24% | – | 1% | – | –
CC1CC(N2CCNCC2)=Nc2cc(Br)ccc2N1 (stereo not shown) [7-Bromo-2-methyl-(piperazin-1-yl)-2,3-dihydro-1H-benzo[b][1,4]diazepine] | 23% | – | 16% | – | –
Clc1ccc2c(c1)Nc1ccc(Cl)cc1C(N1CCNCC1)=N2 [2,7-Dichloro-11-(piperazin-1-yl)-5H-dibenzo[b,e][1,4]diazepine] | -14% | – | -2% | – | –
Fc1ccc(CC2=Nc3cc(Cl)ccc3Nc3ccccc32)cc1 [8-Chloro-11-(4-fluorobenzyl)-5H-dibenzo[b,e][1,4]diazepine] | 7% | – | 3% | – | –
c1ccc2c(c1)N=C(N1CCCNCC1)c1ccccc1N2 [11-[1,4]Diazepam-1-yl-5H-dibenzo[b,e][1,4]diazepine] | – | – | – | – | Emax [2]: 25%; Emax [3]: 18%
Clc1ccc2c(c1)N=C(N1CCNCC1)c1cc(I)ccc1N2 [2-Iodo-8-chloro-11-(piperazin-1-yl)-5H-dibenzo[b,e][1,4]diazepine] | 10% | – | 3% | – | –
Clc1ccc2c(c1)N=C(N1CCNC(c3ccccc3)C1)c1ccccc1N2 (stereo not shown) [8-Chloro-11-(3-phenyl-piperazin-1-yl)-5H-dibenzo[b,e][1,4]diazepine] | 23% | – | 5% | – | –
Clc1ccc2c(c1)C=C(N1CCNCC1)c1ccccc1N2 [2-Chloro-10-piperazin-1-yl-5H-dibenzo[b,f]azepin] | 3% | – | 2% | – | –
Cc1ccc2c(c1)C(N1CCNCC1)=Nc1cc(C(F)(F)F)ccc1N2 [2-Methyl-11-(piperazin-1-yl)-8-trifluoromethyl-5H-dibenzo[b,e][1,4]diazepine] | 14% | – | 15% | – | –
Clc1ccc2c(c1)N=C(N1CCOCC1)c1ccccc1N2 [8-Chloro-11-(morpholin-4-yl)-5H-dibenzo[b,e][1,4]diazepine] | 6% | – | 11% | – | –
Cc1ccc2c(c1)C(N1CCNCC1)=Nc1cc(Br)ccc1N2 [8-Bromo-2-methyl-11-(piperazin-1-yl)-5H-dibenzo[b,e][1,4]diazepine] | 44% | – | 8% | – | –
Clc1ccc2c(c1)N=C(C1CCNCC1)c1ccccc1N2 [8-Chloro-11-(piperidin-4-yl)-5H-dibenzo[b,e][1,4]diazepine] | 31% | 2000 nM | 57% | 631 nM | –
CN(C)CCNC1=Nc2ccccc2Nc2ccccc21 [N′-(5H-Dibenzo[b,e][1,4]diazepine-11-yl)-N,N-dimethyl-ethane-12-diamine] | 20% | – | 10% | – | –
Clc1ccc2c(c1)N=C(N1CCNCC1)c1ccccc1N2Cc1ccccc1 | 16% | – | 41% | 501 nM | –
Clc1ccc2c(c1)Nc1ccccc1C(N1CCNCC1)=N2 [7-Chloro-11-(piperazin-1-yl)-5H-dibenzo[b,e][1,4]diazepine] | 53% | – | 48% | 251 nM | –

— US20090239840A1, “AMINO SUBSTITUTED DIARYL[a,d]CYCLOHEPTENE ANALOGS AS [sequence] AGONISTS AND METHODS OF TREATMENT OF NEUROPSYCHIATRIC DISORDERS” (ACADIA PHARMACEUTICALS, INC., priority 2003, published 2009)
